Results published in US20240299384A1, “METHODS FOR TREATING PULMONARY HYPERTENSION IN PATIENTS WITH LEFT VENTRICULAR ASSIST DEVICE IMPLANTATION” (ACTELION PHARMACEUTICALS LTD, priority 2021, published 2024).

System: patients with PH post-LVAD implantation
Experiment: Phase 2 study in PH post-LVAD implantation: adverse events (Safety Set)
Format: in vivo
Experimental: This is a double-blind, placebo-controlled, multicenter, parallel-group Phase 2 study assessing the efficacy and safety of macitentan in PH post-LVAD implantation. Approximately 57 adult patients with PH post-LVAD implantation were randomized (1:1) to receive either macitentan 10 mg, or matching placebo, once daily orally.
• Treatment-emergent AEs up to 30 days after treatment discontinuation. • AEs leading to premature discontinuation of treatment. • Death up to 30 days after treatment discontinuation. • Treatment-emergent SAEs up to 30 days after treatment discontinuation. • Change from Baseline to EOT in vital signs. • Occurrence of liver function test (ALT and/or AST) abnormality (≥3×ULN; ≥3 and <5×ULN; ≥5 and <8×ULN; ≥8×ULN) up to EOT. • Occurrence of ALT and/or AST abnormality ≥3×ULN associated with bilirubin ≥2×ULN up to EOT. • Proportion of patients with treatment-emergent hemoglobin abnormality (<10.0 g/dL, and <8.0 g/dL) as compared to Baseline up to EOT. • Treatment-emergent marked laboratory abnormalities up to EOT.
An AE is any adverse change, i.e., any unfavorable and unintended sign, including an abnormal laboratory finding, symptom, or disease that occurs in a patient. AEs include: • Exacerbation of a pre-existing disease. • Increase in frequency or intensity of a pre-existing episodic disease or medical condition. • Disease or medical condition detected or diagnosed even though it may have been present prior to the start of the treatment. • Continuous persistent disease or symptoms present at treatment start that worsen following the start. • Abnormal assessments, e.g., change on physical examination, ECG findings, if they represent a clinically significant finding that was not present at treatment start or worsened during the course of the treatment. • Laboratory test abnormalities if they represent a clinically significant finding, symptomatic or not, which was not present at treatment start or worsened during the course of the treatment or led to dose reduction, interruption or permanent discontinuation of treatment.
A treatment-emergent AE is any AE temporally associated with the use of treatment (from treatment initiation until 30 days after treatment discontinuation). Overdose, misuse, and abuse of the treatment may be considered an AE.
The intensity of clinical AEs is graded on a three-point scale-mild, moderate, severe. The three categories of intensity are defined as follows: • Mild: The event may be noticeable to the patient. […] Performance of daily activities may be influenced, and intervention may be needed. • Severe: The event may cause noticeable discomfort, and usually interferes with daily activities. The patient may not be able to continue, and treatment or intervention is usually needed.
An SAE is defined by the ICH guidelines as any AE fulfilling at least one of the following criteria: • Fatal. • Life-threatening: refers to an event in which the patient was at risk of death at the time of the event.
Safety Set (SS): The SS includes all patients receiving at least one dose of drug in the treatment period.
A treatment-emergent AE is any AE temporally associated with the use of a treatment. The number and percentage of patients experiencing treatment-emergent AEs and SAEs at least once are tabulated by treatment group and by: • MedDRA SOC and individual preferred term within each SOC, in descending order of incidence. • Frequency of patients with events coded with the same preferred term, in descending order of incidence.

[1] = AEs leading to treatment discontinuation, SS, N = 28
[2] = SMQs for anemia, hypotension, edema/fluid retention, 10 mg once daily, N = 28
[3] = frequently reported AEs, SS, N = 28
[4] = treatment-emergent, 10 mg once daily, N = 28

CCCNS(=O)(=O)Nc1ncnc(OCCOc2ncc(Br)cn2)c1-c1ccc(Br)cc1 [Macitentan, propylsulfamic acid [5-(4-bromo-phenyl)-6-[2-(5-bromo-pyrimidin-2-yloxy)-ethoxy]-pyrimidin-4-yl]-amide]
3.6%: Acute kidney injury, percent of patients [1] | Blood alkaline phosphatase increased, percent of patients [1] | Blood bilirubin increased, percent of patients [1] | Cardiac disorders, percent of patients [1] | Cerebral haemorrhage, percent of patients [1] | General disorders and administration site conditions, percent of patients [1] | International normalised ratio increased, percent of patients [1] | Investigations, percent of patients [1] | Liver function test increased, percent of patients [1] | Nervous system disorders, percent of patients [1] | Oedema peripheral, percent of patients [1] | Renal and urinary disorders, percent of patients [1] | Right ventricular failure, percent of patients [1]
(10.7) %: Acute kidney injury, percent of patients [3] | Cystatin C increased, percent of patients [3] | Hyperkalaemia, percent of patients [3] | Hypotension, percent of patients [3] | Anticoagulation drug level below therapeutic level, percent of patients (serious AEs, N = 28)
0: Anaemia, number of patients [1] | Blood and lymphatic system disorders, number of patients [1] | Haemolysis, number of patients [1] | Haemorrhagic stroke, number of patients [1] | Complication associated with device, number of patients [3] | Dehydration, number of patients [3] | Fall, number of patients [3] | Complication associated with device, number of patients (serious AEs, N = 28) | Dehydration, number of patients (serious AEs, N = 28) | Gastrointestinal hemorrhage, number of patients (serious AEs, N = 28) | Ventricular tachycardia, number of patients (serious AEs, N = 28)
10: Any Events of Interest, number of patients [2]
(92.9) %: Any Adverse Event, percent of patients [4]
3: Acute kidney injury, number of patients [3] | Cystatin C increased, number of patients [3] | Hyperkalaemia, number of patients [3] | Hypotension, number of patients [3] | Anticoagulation drug level below therapeutic level, number of patients (serious AEs, N = 28)
(57.1) %: Any Serious Adverse Event, percent of patients [4]
well tolerated: tolerability in words (early post-LVAD population, 10 mg once daily)
1: Acute kidney injury, number of patients [1] | Blood alkaline phosphatase increased, number of patients [1] | Blood bilirubin increased, number of patients [1] | Cardiac disorders, number of patients [1] | Cerebral haemorrhage, number of patients [1] | General disorders and administration site conditions, number of patients [1] | International normalised ratio increased, number of patients [1] | Investigations, number of patients [1] | Liver function test increased, number of patients [1] | Nervous system disorders, number of patients [1] | Oedema peripheral, number of patients [1] | Renal and urinary disorders, number of patients [1] | Right ventricular failure, number of patients [1] | Ventricular tachycardia, number of patients [3] | Any Adverse Event With Outcome of Death, number of patients [4]
4: Any Adverse Event Leading to Treatment Discontinuation, number of patients (SS, 10 mg once daily, N = 28) | Anticoagulation drug level below therapeutic, number of patients [3] | Dizziness, number of patients [3] | Dyspnoea, number of patients [3] | Fatigue, number of patients [3] | N-terminal prohormone brain natriuretic peptide increased, number of patients [3] | Oedema peripheral, number of patients [3]
26: Any Adverse Event, number of patients [4]
(32.1) %: Any Severe Adverse Event, percent of patients [4]
(21.4) %: Any Treatment-Related Adverse Event, percent of patients [4]
(3.6) %: Ventricular tachycardia, percent of patients [3] | Any Adverse Event With Outcome of Death, percent of patients [4]
2: Any Treatment-Related Adverse Event Leading to Treatment Discontinuation, number of patients (10 mg once daily, N = 28) | Vomiting, number of patients [3] | Acute kidney injury, number of patients (serious AEs, N = 28) | Pleural effusion, number of patients (serious AEs, N = 28) | Right ventricular failure, number of patients (serious AEs, N = 28) | Septic shock, number of patients (serious AEs, N = 28) | Any Severe Treatment-Related Adverse Event, number of patients [4] | Any Treatment-Related Serious Adverse Event, number of patients [4]
(14.3) %: Anticoagulation drug level below therapeutic, percent of patients [3] | Dizziness, percent of patients [3] | Dyspnoea, percent of patients [3] | Fatigue, percent of patients [3] | N-terminal prohormone brain natriuretic peptide increased, percent of patients [3] | Oedema peripheral, percent of patients [3]
(35.7) %: Any Events of Interest, percent of patients [2]
16: Any Serious Adverse Event, number of patients [4]
(7.1) %: Any Treatment-Related Adverse Event Leading to Treatment Discontinuation, percent of patients (10 mg once daily, N = 28) | Vomiting, percent of patients [3] | Acute kidney injury, percent of patients (serious AEs, N = 28) | Pleural effusion, percent of patients (serious AEs, N = 28) | Right ventricular failure, percent of patients (serious AEs, N = 28) | Septic shock, percent of patients (serious AEs, N = 28) | Any Severe Treatment-Related Adverse Event, percent of patients [4] | Any Treatment-Related Serious Adverse Event, percent of patients [4]
9: Any Severe Adverse Event, number of patients [4]
6: Any Treatment-Related Adverse Event, number of patients [4]
favorable safety profile: safety profile in words (post-LVAD implantation patients, 10 mg once daily)
